Source: ChEMBL document CHEMBL3603809, “New Frontiers in Selective Human MAO-B Inhibitors” (J Med Chem, 2015)

Columns and labels:
[1] = target: T1, Amine oxidase [flavin-containing] B (Homo sapiens, UniProt P27338); experiment: Competitive inhibition of human liver MAOB expressed in Pichia pastoris
T1 sequence (P27338 whole entry): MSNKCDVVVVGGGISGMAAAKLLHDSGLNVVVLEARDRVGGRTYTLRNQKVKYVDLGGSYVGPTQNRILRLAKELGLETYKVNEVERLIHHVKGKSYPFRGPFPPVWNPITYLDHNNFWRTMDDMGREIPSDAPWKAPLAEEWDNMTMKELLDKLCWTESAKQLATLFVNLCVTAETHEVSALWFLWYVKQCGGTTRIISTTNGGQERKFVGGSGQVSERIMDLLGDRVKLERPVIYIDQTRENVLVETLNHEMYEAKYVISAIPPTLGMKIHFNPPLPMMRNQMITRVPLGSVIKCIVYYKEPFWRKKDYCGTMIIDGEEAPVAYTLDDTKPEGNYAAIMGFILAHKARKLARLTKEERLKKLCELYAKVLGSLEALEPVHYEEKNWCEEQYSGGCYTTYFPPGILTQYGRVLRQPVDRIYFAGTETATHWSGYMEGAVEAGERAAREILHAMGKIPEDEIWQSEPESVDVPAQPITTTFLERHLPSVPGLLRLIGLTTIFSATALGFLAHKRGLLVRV

[2] = target: T1, Amine oxidase [flavin-containing] B; experiment: Inhibition of human MAOB
[3] = species: Homo sapiens; experiment: Selectivity index, ratio of Ki for human MAOA to Ki for human MAOB
[4] = Inhibition of baboon MAOB; design: species or system Papio

Row | SMILES | Ki [2] | further results
1 | C(=C\Cc1ccccc1)/Cc1ccccc1 | – | Ki [1]: 0.035 µM
2 | Cn1c(=O)c2c(nc(OCc3ccc(Br)cc3)n2C)n(C)c1=O | 0.062 µM | –
3 | CN(C)c1ccc(/N=C/c2ccccn2)cc1 | – | Ratio Ki [3]: 3
4 | Cn1c(=O)c2c(nc(/C=C/C=C/c3cccc(Br)c3)n2C)n(C)c1=O | – | Ki [4]: 0.017 µM
5 | C#CN(C)Cc1ccc(C(=O)NC2CC(C)(C)N([O])C(C)(C)C2)cc1 | 22 µM | –

More lines, main results first:

Row | Ki [2] | SMILES | further results
6 | 0.032 µM | C#CCN(C)c1nc2nc(CCC3CCN(Cc4ccccc4)CC3)ccc2c(-c2ccccc2)c1C#N | Ratio Ki [3]: > 3
7 | 0.068 µM | Cn1c(=O)c2c(nc(OCc3cccc(Br)c3)n2C)n(C)c1=O | –
